Experimental data from patent publication US20050261298A1, “Methods of treating conditions associated with an Edg-7 receptor” (priority 2002, published 2005).
pIC50: −log10 of the molar value.

Assays:
Adrenergic α2 = test: Radioligand binding assay, 3H Rauwolscine; set-up: species or system Wistar rat; conditions: significance criteria ≧50% of max stimulation or inhibition
Protocol: (§1) In order to test the selectivity of compounds, various enzyme assays as well as radioligand binding assays were performed using numerous non-Edg receptor targets as listed below.
(§2) A radioligand binding assay was performed using adrenergic α1 according to the method of Greengrass and Bremner 1979, Eur. J. Pharmacol. 55:323-326. A radioligand binding assay was performed using adrenergic α2 according to the method of Boyajian and Leslie, 1987, J. Pharmacol. Exp. Ther. 241:1092-1098. A radioligand binding assay was performed using adrenergic β according to the method of Feve et al., 1994, Proc. Natl. Acad. Sci. USA 91:5677-5681. A radioligand binding assay was performed using angiotensin AT2 according to the method of Whitebread et al., 1991, Biochem. Biophys. Res. Comm. 181:1365-1371. A radioligand binding assay was performed using calcium channel Type L, dihydropyridine according to the method of Ehlert et al., 1982, Life Sci. 30:2191-2202. A radioligand binding assay was performed using dopamine D2L according to the method of Bunzo et al., 1988, Nature 336:783-787. A radioligand binding assay was performed using endothelin ETA according to the method of Mihara et al., 1994, J. Pharmacol. Exp Ther. 268:1122-1127. A radioligand binding assay was performed using histamine H1 Central according to the method of Hill et al., 1978, J. Neurochem. 31:997-1004. […]

Edg-8 = molecular target: T1, Edg-8 (Homo sapiens, UniProt Q9H228); test: Calcium mobilization assay (FLIPR), inhibition of S1P-stimulated calcium increase; type: cell-based; conditions: HTC cells expressing Edg-8
T1 construct: expressed in transfected cells; host or cells: HTC rat hepatoma cells

Edg-3 = molecular target: T2, Edg-3 (Homo sapiens, UniProt Q99500); test: as above; type: cell-based; conditions: HTC cells expressing Edg-3
T2 construct: expressed in transfected cells; host or cells: HTC rat hepatoma cells

Endothelin ETA = molecular target: T3, Endothelin ETA (Homo sapiens, UniProt P25101); test: Radioligand binding assay, 125I Endothelin; conditions: significance criteria ≧50% of max stimulation or inhibition
T3 construct: expressed in transfected cells; host or cells: CHO cells
T3 sequence (P25101 21-427): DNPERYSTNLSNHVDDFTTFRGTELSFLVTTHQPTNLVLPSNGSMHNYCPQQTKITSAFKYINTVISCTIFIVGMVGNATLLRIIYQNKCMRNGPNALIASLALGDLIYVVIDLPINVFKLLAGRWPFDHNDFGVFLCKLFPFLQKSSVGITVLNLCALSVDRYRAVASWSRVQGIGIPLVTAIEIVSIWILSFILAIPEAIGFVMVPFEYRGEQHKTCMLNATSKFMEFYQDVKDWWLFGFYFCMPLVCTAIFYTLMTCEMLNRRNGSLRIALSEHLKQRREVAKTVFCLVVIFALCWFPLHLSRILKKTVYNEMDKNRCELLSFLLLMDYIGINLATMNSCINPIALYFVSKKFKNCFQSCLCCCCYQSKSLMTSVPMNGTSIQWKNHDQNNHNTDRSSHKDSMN
Protocol: as §1, §2

Edg-4 = Edg-4 (Homo sapiens, UniProt Q9HBW0); test: Calcium mobilization assay (FLIPR), inhibition of LPA-stimulated calcium increase; type: cell-based; conditions: HTC cells expressing Edg-4
[1] = test system: Muscarinic Non-Selective, Central; test: Radioligand binding assay, 3H Quinuclidinyl benzilate; set-up: species or system Wistar rat; conditions: significance criteria ≧50% of max stimulation or inhibition
Protocol: as §1, §2

Adrenergic β = test: Radioligand binding assay, 3H Dihydroaplenolol; set-up: species or system Wistar rat; conditions: significance criteria ≧50% of max stimulation or inhibition
Protocol: as §1, §2

Histamine H1, Central = molecular target: T4, Histamine H1, Central (Cavia porcellus, UniProt P31389); test: Radioligand binding assay, 3H Pyrilamine; set-up: species or system Guinea pig; conditions: significance criteria ≧50% of max stimulation or inhibition
T4 construct: Source: Guinea pig cerebellum; from tissue; host or cells: guinea pig cerebellum
Protocol: as §1, §2

Edg-1 = molecular target: T5, Edg-1 (Homo sapiens, UniProt P21453); test: Calcium mobilization assay (FLIPR), inhibition of S1P-stimulated calcium increase; type: cell-based; conditions: HTC cells expressing Edg-1
T5 construct: expressed in transfected cells; host or cells: HTC rat hepatoma cells

[2] = test system: Adrenergic α1, Non-Selective; test: Radioligand binding assay, 3H Prazosin; set-up: species or system Wistar Rat; conditions: significance criteria ≧50% of max stimulation or inhibition
Protocol: as §1, §2

[3] = concentrations as high as 20 µM

T5 sequence (P21453 whole entry): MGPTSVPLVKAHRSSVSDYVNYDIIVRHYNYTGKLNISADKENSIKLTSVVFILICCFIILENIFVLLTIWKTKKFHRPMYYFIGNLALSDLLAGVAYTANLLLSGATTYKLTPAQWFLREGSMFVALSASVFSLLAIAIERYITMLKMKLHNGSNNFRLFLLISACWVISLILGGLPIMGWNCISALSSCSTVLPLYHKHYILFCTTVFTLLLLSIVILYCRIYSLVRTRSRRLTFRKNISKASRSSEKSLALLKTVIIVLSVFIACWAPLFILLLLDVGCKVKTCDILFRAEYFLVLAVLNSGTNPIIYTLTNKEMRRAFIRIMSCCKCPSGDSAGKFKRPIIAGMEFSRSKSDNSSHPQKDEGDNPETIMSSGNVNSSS
T1 sequence (Q9H228 whole entry): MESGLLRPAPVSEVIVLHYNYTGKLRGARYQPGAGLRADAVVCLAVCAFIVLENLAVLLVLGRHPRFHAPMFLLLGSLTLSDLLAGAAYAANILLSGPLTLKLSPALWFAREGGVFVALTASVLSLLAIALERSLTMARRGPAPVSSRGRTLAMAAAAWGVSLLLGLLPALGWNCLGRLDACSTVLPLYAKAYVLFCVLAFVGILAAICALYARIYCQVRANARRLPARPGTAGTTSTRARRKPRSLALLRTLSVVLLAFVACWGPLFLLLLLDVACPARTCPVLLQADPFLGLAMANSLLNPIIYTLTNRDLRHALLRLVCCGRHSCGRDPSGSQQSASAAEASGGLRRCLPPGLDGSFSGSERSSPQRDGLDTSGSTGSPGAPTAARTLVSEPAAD
T2 sequence (Q99500 whole entry): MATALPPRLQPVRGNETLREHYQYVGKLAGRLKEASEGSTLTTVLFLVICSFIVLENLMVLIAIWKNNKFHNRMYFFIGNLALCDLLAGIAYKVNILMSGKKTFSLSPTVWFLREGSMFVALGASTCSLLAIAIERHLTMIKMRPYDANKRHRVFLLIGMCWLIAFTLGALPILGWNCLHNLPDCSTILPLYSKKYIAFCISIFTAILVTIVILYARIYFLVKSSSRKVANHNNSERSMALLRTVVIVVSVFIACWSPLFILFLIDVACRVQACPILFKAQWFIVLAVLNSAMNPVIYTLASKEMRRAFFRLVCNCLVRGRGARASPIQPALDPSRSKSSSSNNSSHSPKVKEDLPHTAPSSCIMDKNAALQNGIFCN
Chain of Edg-4 (Q9HBW0 1-344 limits assumed): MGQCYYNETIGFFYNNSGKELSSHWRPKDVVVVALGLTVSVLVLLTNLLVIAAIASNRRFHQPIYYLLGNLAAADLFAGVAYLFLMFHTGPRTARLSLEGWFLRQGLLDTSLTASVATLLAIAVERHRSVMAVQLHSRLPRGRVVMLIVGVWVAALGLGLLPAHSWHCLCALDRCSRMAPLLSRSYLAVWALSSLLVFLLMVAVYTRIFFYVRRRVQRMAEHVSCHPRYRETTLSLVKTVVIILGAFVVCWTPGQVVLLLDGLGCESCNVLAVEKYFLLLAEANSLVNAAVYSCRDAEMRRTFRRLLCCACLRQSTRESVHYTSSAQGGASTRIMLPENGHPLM
T4 sequence (P31389 whole entry): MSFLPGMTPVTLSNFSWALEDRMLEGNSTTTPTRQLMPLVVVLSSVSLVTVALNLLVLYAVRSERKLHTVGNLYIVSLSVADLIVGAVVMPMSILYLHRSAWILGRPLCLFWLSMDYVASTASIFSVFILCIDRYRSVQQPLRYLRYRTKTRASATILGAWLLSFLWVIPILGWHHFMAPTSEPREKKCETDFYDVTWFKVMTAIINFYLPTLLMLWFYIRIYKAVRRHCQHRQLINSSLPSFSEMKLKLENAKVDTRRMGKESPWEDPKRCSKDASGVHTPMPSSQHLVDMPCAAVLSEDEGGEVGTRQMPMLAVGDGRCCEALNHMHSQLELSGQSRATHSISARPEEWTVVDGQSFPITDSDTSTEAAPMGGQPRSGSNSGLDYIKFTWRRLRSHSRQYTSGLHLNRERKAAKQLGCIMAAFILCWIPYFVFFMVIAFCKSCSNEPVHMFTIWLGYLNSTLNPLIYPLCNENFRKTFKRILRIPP

## CCOC(=O)c1c(NC(=O)NS(=O)(=O)c2ccccc2Cl)sc2c1CCCC2 [Compound 101]
other
  melting point: 222 to 225 °C
Adrenergic α2
  activity in radioligand binding assay, Adrenergic Alpha 2, non-selective: no significant activity
Edg-8
  pIC50: < 4.70
Edg-8; [3]
  inhibition of S1P-stimulated calcium increases, Edg-8: did not inhibit
Edg-3
  pIC50: < 4.70
Edg-3; [3]
  inhibition of S1P-stimulated calcium increases, Edg-3: did not inhibit
Endothelin ETA
  activity in radioligand binding assay, Endothelin ETA: no significant activity
Edg-4
  pIC50: < 4.70
Edg-4; [3]
  inhibition of LPA-stimulated calcium increases, Edg-4: did not inhibit
[1]
  activity in radioligand binding assay, Muscarinic, non-selective, central: no significant activity
Adrenergic β
  activity in radioligand binding assay, Adrenergic Beta, non-selective: no significant activity
Histamine H1, Central
  activity in radioligand binding assay, H1 central: no significant activity
Edg-1
  pIC50: < 4.70
Edg-1; [3]
  inhibition of S1P-stimulated calcium increases, Edg-1: did not inhibit
[2]
  activity in radioligand binding assay, Adrenergic Alpha 1, non-selective: no significant activity
